The target of assay [1] is T1, matriptase zymogen activation (Homo sapiens, UniProt Q9Y5Y6).
T1 sequence (Q9Y5Y6 1-855): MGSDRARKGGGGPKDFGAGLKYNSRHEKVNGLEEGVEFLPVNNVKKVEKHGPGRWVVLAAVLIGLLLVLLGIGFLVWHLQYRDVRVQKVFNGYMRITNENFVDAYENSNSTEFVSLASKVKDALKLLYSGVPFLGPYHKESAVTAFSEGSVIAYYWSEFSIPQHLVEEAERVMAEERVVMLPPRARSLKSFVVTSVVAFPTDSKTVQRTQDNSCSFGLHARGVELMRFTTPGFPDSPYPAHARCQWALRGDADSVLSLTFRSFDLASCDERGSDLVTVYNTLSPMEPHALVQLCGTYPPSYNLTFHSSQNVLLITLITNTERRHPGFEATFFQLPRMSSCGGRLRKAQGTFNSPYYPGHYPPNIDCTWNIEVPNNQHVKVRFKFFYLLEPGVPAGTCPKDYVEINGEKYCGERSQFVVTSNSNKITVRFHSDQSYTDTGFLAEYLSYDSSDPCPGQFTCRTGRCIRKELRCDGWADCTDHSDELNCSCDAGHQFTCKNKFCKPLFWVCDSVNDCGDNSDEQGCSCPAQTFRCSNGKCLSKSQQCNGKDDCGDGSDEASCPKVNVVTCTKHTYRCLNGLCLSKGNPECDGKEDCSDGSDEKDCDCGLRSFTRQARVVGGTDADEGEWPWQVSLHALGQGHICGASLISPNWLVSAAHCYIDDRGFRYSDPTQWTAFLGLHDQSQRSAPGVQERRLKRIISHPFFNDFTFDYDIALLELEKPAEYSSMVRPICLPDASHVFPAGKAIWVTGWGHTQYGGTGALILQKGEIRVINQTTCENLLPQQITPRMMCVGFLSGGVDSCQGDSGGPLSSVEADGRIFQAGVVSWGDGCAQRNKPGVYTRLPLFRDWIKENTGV
The experiment in a line: Cell-based, ELISA-like matriptase activation assay. The note with it: 184 A1N4 cells, pH 6.0 buffer, 20 min, ELISA-like assay and immunoblot.

For the next assay, the system named is prostasin activation. The experiment in a line: Acid-induced prostasin activation in HaCaT keratinocytes, immunoblot. It counts as cell-based, human. As to conditions: HaCaT cells, pH 6.0, dose-dependent.
In assay [2] the target is T2, matriptase activation (Homo sapiens, UniProt Q9Y5Y6).
T2 sequence (Q9Y5Y6 1-855): T1 sequence (Q9Y5Y6 1-855)
The experiment in a line: Acid-induced matriptase activation in HaCaT keratinocytes, immunoblot. In kind it is cell-based. The note with it: HaCaT cells, pH 6.0, dose-dependent.

Assay [3] concerns the target T2, matriptase activation. The experiment in a line: Cell-free in vitro matriptase activation assay. It counts as biochemical. As to conditions: insoluble fractions of 184 A1N4 cell homogenates, pH 6.0.
In assay [4] the target is T2, matriptase activation. It counts as cell-based. As to conditions: 184 A1N4 intact cells; for Inhibition of matriptase activation by immunoblot, increasing concentrations: pH 6.0, mAb M24 and M69.

On to Sodium chloride [NaCl], for which the “NaCl-mediated inhibition of acid-induced matriptase activation” value in assay [1] is reported as “dose-dependent manner”.
For `Cc1nc(N2C(=O)C(O)=C(C(=O)c3cccs3)C2c2ccccc2)sc1C` (centres unmarked) [compound 3, 1-(4,5-dimethylthiazol-2-yl)-3-hydroxy-5-phenyl-4-(thiophene-2-carbonyl)-1H-pyrrol-2(5H)-one], the “Inhibition of acid-induced activation of prostasin” value (from here on “Inhibition … of prostasin”) in the assay on prostasin activation is on record as “same pattern of inhibition”. On matriptase activation [2], the “Inhibition of acid-induced activation of matriptase” value is “same pattern of inhibition”. Besides, the “Inhibition of matriptase activation in the cell-free system” value (from here on “Inhibition … in the cell-free system”) on matriptase activation [3] is “suppress matriptase activation in a dose-dependent manner”. Further, the “Inhibition of matriptase activation by immunoblot, increasing concentrations” value (shortened to “Inhibition … increasing concentrations”) on matriptase activation [4] is “same pattern of inhibition”.
Regarding `Cc1nc(N2C(=O)C(O)=C(C(=O)c3cccs3)C2c2cccs2)sc1C` (centres unmarked) [compound 2, 1-(4,5-dimethylthiazol-2-yl)-3-hydroxy-5-(thiophen-2-yl)-4-(thiophene-2-carbonyl)-1H-pyrrol-2(5H)-one], the “Inhibition … of prostasin” value with prostasin activation is on record as “clearly inhibited”. At matriptase activation [2], the “Inhibition of acid-induced activation of matriptase” value is listed as “clearly inhibited”. Moreover, the “Inhibition … in the cell-free system” value at matriptase activation [3] was “suppress matriptase activation in a dose-dependent manner”. The “120-kDa matriptase-HAI-1 complex (matriptase activation) by immunoblot” value on matriptase activation [4] (5 μM compound, pH 6.0) is recorded as “no detectable 120-kDa complex”.
With `O=C(C1=C(O)C(=O)N(c2nccs2)C1c1cccs1)c1cccs1` (centres unmarked) [compound 1, 3-hydroxy-1-(thiazol-2-yl)-5-(thiophen-2-yl)-4-(thiophene-2-carbonyl)-1H-pyrrol-2(5H)-one], in the assay with prostasin activation, the “Inhibition … of prostasin” value is given as “same pattern of inhibition”. In addition, on matriptase activation [2], the “Inhibition of acid-induced activation of matriptase” value was “same pattern of inhibition”. The “Inhibition … in the cell-free system” value at matriptase activation [3] is “suppress matriptase activation in a dose-dependent manner”. The “Inhibition … increasing concentrations” value on matriptase activation [4] is “same pattern of inhibition”.
As for `Cc1nc(N2C(=O)C(O)=C(C(=O)c3ccccc3)C2c2cccs2)sc1C` (centres unmarked) [compound 4, 4-benzoyl-1-(4,5-dimethylthiazol-2-yl)-3-hydroxy-5-(thiophen-2-yl)-1H-pyrrol-2(5H)-one], the “Inhibition … of prostasin” value with prostasin activation is reported as “same pattern of inhibition”. Also, the “Inhibition of acid-induced activation of matriptase” value on matriptase activation [2] is on record as “same pattern of inhibition”. Moreover, the “Inhibition … in the cell-free system” value at matriptase activation [3] is “suppress matriptase activation in a dose-dependent manner”. Besides, on matriptase activation [4], the “Inhibition … increasing concentrations” value is recorded as “same pattern of inhibition”.
